# According to the NIST ThermoML archive (doi:10.1016/j.fluid.2005.05.018):
# ± gives the expanded uncertainty stated by the source.
# Columns and labels:
# [1] = 101.33 kPa, Liquid
# [2] = refractive index (Na D-line) (dimensionless); details: 293.15 K; 101.33 kPa; Liquid; Standard Abbe refractometry
SMILES,mass density ([1]; 298.15 K),refractive index [2],mass density ([1]; 293.15 K)
CCOC(=O)OCC [diethyl carbonate],969.2 ± 0.3 kg/m3,1.383 ± 0.0007,
CC(=O)OC(C)C [1-methylethyl ethanoate],866.4 ± 0.5 kg/m3,1.3751 ± 0.0007,
CCO [ethanol],,1.3592 ± 0.0007,789.4 ± 0.6 kg/m3
CCCC(=O)OCC [ethyl butanoate],,1.3899 ± 0.0007,879 ± 0.5 kg/m3
